Structures can show the parent of a compound that is named as a salt.
What was measured:
prolactin [1] = assay: inhibition of prolactin secretion in reserpine-treated male rats; format: in vivo, rat (Sprague-Dawley); parameters: Serum Prolactin Level: unit not given here; conditions: for Percent Inhibition of Serum Prolactin: vs. control of same experiment
Protocol: Adult male rates of the Sprague-Dawley strain weighing about 200 g. were housed in an air-conditioned room with controlled lighting (lights on 6 a.m.-8 p.m.) and fed lab chow and water ad libitum. Each rat received an intraperitoneal injection of 2.0 mg. of reserpine in aqueous suspension 18 hours before administration of the ergoline derivative. The purpose of the reserpine was to keep prolactin levels uniformly elevated. The compounds under test were dissolved in 10 percent ethanol at a concentration of 10 mcg.ml. and were injected intraperitoneally at a standard dose of 50 mcg/kg. Each compound was administered to a group of 10 rats, and a control group of 10 intact males received an equivalent amount of 10 percent ethanol. One hour after treatment all rats were killed by decapitation, and 150 μl aliquots of serum were assayed for prolactin. The results were evaluated statistically using Student's "t" test to calculate the level of significance, "p", of the changes in prolactin level.
The difference between the prolactin level of the treated rats and prolactin level of the control rats, divided by the prolactin level of the control rats gives the percent inhibition of prolactin secretion attributable to the compounds of this invention. In the table, column 1 gives the name of the compound; column 2, the prolactin level for each group of rats; column 3, the percent prolactin inhibition; and column 4, the level of significance. The data were collected from three separate experiments, each with its own control, and Table 2 sets forth the results obtained by experiment.

[2] = system: 6-hydroxydopamine-lesioned rats; assay: turning behavior test in 6-hydroxydopamine-lesioned rats; format: in vivo, rat; conditions: for Average Number of Turns/rat: first 15 minutes after end of latency period
Protocol: In this test, nigro-neostriatal-lesioned rats are employed, which are prepared by the procedure of Ungerstedt and Arbuthnott, Brain Res, 24, 485 (1970). A compound having dopamine agonist activity causes the rats to turn in circles contralateral to the side of the lesion. After a latency period, which varies from compound to compound, the number of turns is counted over a 15-minute period.
The compounds were dissolved in water and the aqueous solution injected into the rat by the intraperitoneal route.

prolactin [3] = conditions: in words; cited from earlier work
Parkinsonism = conditions: in words; cited from earlier work
dopamine receptors [4] = conditions: in words; cited from earlier work
[5] = in words; cited from earlier work
dopamine receptors [6] = assay: inhibition of high affinity binding of tritiated dopamine to dopamine receptors in membranes from striatal synaptosomes; parameters: species or system bovine; conditions: in words
serotonin = serotonin agonism; conditions: in words
[7] = 50 mcg/kg i.p., one hour after treatment

Row | Compound | Percent Inhibition of Serum Prolactin (prolactin [1]; [7]) | % of Rats Exhibiting Turning Behavior ([2]; IP dose 1 mg/kg) | Duration of Effect ([2]; IP dose 1 mg/kg) | Latency of Effect ([2]; IP dose 1 mg/kg) | other results
1 | CCCN1C[C@H](CSC)C[C@@H]2c3cccc4[nH]c(Br)c(c34)C[C@H]21 [D-2-bromo-6-n-propyl-8β-methylmercaptomethylergoline mesylate] | 89% | 100% | 1 h | 5 min | Average Number of Turns/rat ([2]; IP dose 1 mg/kg): 71 Turns/rat
2 | CC(C)C[C@H]1C(=O)N2CCC[C@H]2[C@]2(O)O[C@](NC(=O)[C@@H]3C=C4c5cccc6[nH]c(Br)c(c56)C[C@H]4N(C)C3)(C(C)C)C(=O)N12 (stereo in doubt) [2-bromo-α-ergokryptine] | – | – | – | – | activity as prolactin inhibitors (prolactin [3]): activity as prolactin inhibitors; usefulness in the treatment of Parkinsonism (Parkinsonism): useful in the treatment of Parkinsonism; dopamine receptor stimulation (dopamine receptors [4]): stimulate dopamine receptors
3 | CCCN1C[C@H](COC)C[C@@H]2c3cccc4[nH]cc(c34)C[C@H]21 [D-6-n-propyl-8β-methoxymethylergoline methanesulfonate] | 96% | 100% | ≥ 2 h | 6 min | –
4 | CN1CC(CC#N)C[C@@H]2c3cccc4[nH]cc(c34)C[C@H]21 (stereo partly drawn) [D-6-methyl-8-cyanomethylergoline] | – | – | – | – | activity as prolactin inhibitors (prolactin [3]): activity as prolactin inhibitors
5 | CC(C)C1C(=O)N2CCCC2C2(O)OC(NC(=O)C3CC4c5cccc6[nH]cc(c56)CC4N(C)C3)(C(C)C)C(=O)N12 (stereo not shown) [dihydroergocornine] | – | – | – | – | activity as prolactin inhibitors (prolactin [3]): activity as prolactin inhibitors
6 | CCCN1C[C@H](CSC)C[C@@H]2c3cccc4[nH]cc(c34)C[C@H]21 [D-6-n-propyl-8β-methylmercaptomethylergoline methanesulfonate] | – | – | ≥ 24 h | – | relative potency as a prolactin inhibitor (prolactin [1]; vs. corresponding D-6-methyl compound, dose response curves): about 100 times; relative potency in the turning behavior test ([2]; vs. corresponding D-6-methyl derivative, dose response curves): about 30 times
7 | CCCN1C[C@H](C[S+](C)[O-])C[C@@H]2c3cccc4[nH]cc(c34)C[C@H]21 (stereo partly drawn) [D-6-n-propyl-8β-methylsulfinylmethylergoline mesylate] | 92% | 100% | 1 h | 7 min | Serum Prolactin Level (prolactin [1]; 50 mcg/kg i.p., one hour after treatment, reserpine-treated male rats): 3.3; Average Number of Turns/rat ([2]; IP dose 1 mg/kg): 65 Turns/rat
8 | CC(C)[C@H]1C(=O)N2CCC[C@H]2[C@]2(O)O[C@](NC(=O)[C@@H]3C=C4c5cccc6[nH]cc(c56)C[C@H]4N(C)C3)(C(C)C)C(=O)N12 [ergocornine] | – | – | – | – | activity as prolactin inhibitors (prolactin [3]): activity as prolactin inhibitors; dopamine receptor stimulation (dopamine receptors [4]): stimulate dopamine receptors
9 | CSC[C@@H]1C[C@@H]2c3cccc4[nH]cc(c34)C[C@H]2N(C)C1 [D-6-methyl-8β-methylmercaptomethylergoline mesylate, reference compound] | 58% | 50% | – | – | Duration of Effect in Hours ([2]; IP dose 1 mg/kg): ~ 2 Hours; Average Number of Turns/rat ([2]; IP dose 1 mg/kg): 51 Turns/rat
10 | CCCN1CC(CSC)=C[C@@H]2c3cccc4[nH]cc(c34)C[C@H]21 [D-6-n-propyl-8-methylmercaptomethyl-8-ergolene maleate] | 91% | 100% | 1 h | 4 min | –
11 | CCN1C[C@H](CSC)C[C@@H]2c3cccc4[nH]cc(c34)C[C@H]21 [D-6-ethyl-8β-methylmercaptomethylergoline mesylate] | 91% | 100% | ≥ 2 h | 9 min | –
12 | CN1C[C@H](CC#N)C[C@@H]2c3cccc4[nH]c(Cl)c(c34)C[C@H]21 [legotrile] | – | – | – | – | usefulness in the treatment of Parkinsonism (Parkinsonism): useful in the treatment of Parkinsonism
13 | CCCN1C[C@H](CSC)C=C2c3cccc4[nH]cc(c34)C[C@H]21 [D-6-n-propyl-8β-methylmercaptomethyl-9-ergolene] | 81% | 100% | ≥ 2 h | 4 min | Average Number of Turns/rat ([2]; IP dose 1 mg/kg): 200 Turns/rat
14 | N[C@@H](Cc1ccc(O)c(O)c1)C(=O)O [Example 1-dopa, 1-dihydroxyphenylalanine] | – | – | – | – | metabolism [5]: rapidly metabolized
15 | CCCN1C[C@H](CSC)C[C@@H]2c3cccc4[nH]cc(c34)C[C@H]21 [D-6-n-Propyl-8β-methylmercaptomethylergoline] | – | – | – | – | inhibition of high affinity binding of tritiated dopamine (dopamine receptors [6]): extremely potent inhibitors; serotonin agonist / antagonist activity (serotonin): serotonin agonists rather than serotonin antagonists

From patent publication US4180582A, “6-n-Propyl-8-methoxy-methyl or methylmercaptomethylergolines and related compounds as prolactin inhibitors and to treat Parkinson's syndrome” (priority 1979, dated 1979)
